According to US11046651B2, “Piperazine substituted azapine derivatives and uses thereof” (Alairion, Inc., priority 2019, dated 2021):
Several values for one entry are separate records, joined by “and”; a condition that tells them apart may be missing. Identical values can stand only once.

Tests used:
5-HT2C = 5-HT2C (Homo sapiens (Human), UniProt P28335); assay: 5-HT2C binding assay ([3H]-Mesulergine, HEK293 membranes)
Description: 5-HT2C Binding Assay Protocol
The testing compounds were diluted with DMSO, starting at 2 mM, with 8-points and 5-fold serial dilutions.
1 μL of a compound of the present disclosure the reference compound (Table J) was transferred to an assay plate. […] 1 μL of DMSO was transferred to an assay plate according to the plate map for total binding (High control: HC).
(§1) Unifilter-96 GF/C filter plates were soaked with 50 μL of 0.3% PEI per well for about 0.5 hours at room temperature. When the binding assays were complete, the reaction mixture was filtered through the GF/C filter plates using Perkin Elmer Filtermate Harvester, and each plate was washed 4 times with cold wash buffer. The filter plates were dried for 1 hour at 50° C. After drying, the bottom of the filter plate wells were sealed using Perkin Elmer Unifilter-96 backing seal tape. 50 μL of Perkin Elmer Microscint 20 cocktail was added. The top of the filter plates were sealed with Perkin Elmer TopSeal-A sealing film.
(§2) ^3H trapped on filters were counted using Perkin Elmer MicroBeta2 Reader. Inhibition constants were calculated using the following equation:
[formula] The data was analyzed using Prism 5. The model used was “log(inhibitor) vs. response—Variable slope” to fit the data and calculate IC50. The IC50 was then converted to Ki using the following equation: Ki=IC50/(1+L/Kd), wherein L is the radioligand concentration in the reaction system; Kd is the affinity of radioligand to the receptor.

D2 = D2 (Homo sapiens (Human), UniProt P14416); assay: D2 binding assay ([3H] 7-OH-DPAT, HEK293 D2L membranes); conditions: numeric values
Description: D2 Binding Assay Protocol
The testing compounds were diluted with DMSO, starting at 2 mM, with 8-points and 5-fold serial dilutions. droperidol was diluted with DMSO, starting at 0.2 mM, with 8-points and 4-fold serial dilutions.
1 μL of a compound of the present disclosure and the reference compound (Table O) was transferred to an assay plate. 1 μL of droperidol was transferred to an assay plate according to the plate map for nonspecific binding (Low control: LC). 1 μL of DMSO was transferred to an assay plate according to the plate map for total binding (High control: HC). Following a plate map, 100 μL of the membrane stock solutions and radio ligand were added into the plate. The plates were sealed and shaken with 300 rpm.
as §1, with “the GF/B” for “the GF/C”
^3H trapped on filters were counted using Perkin Elmer MicroBeta2 Reader. Inhibition constants were calculated using the following equation: […]
The data was analyzed using Prism 5. The model used was “log(inhibitor) vs. response—Variable slope” to fit the data and calculate IC50. The IC50 was then converted to Ki using the following equation: Ki=IC50/(1+L/Kd), wherein L is the radioligand concentration in the reaction system; Kd is the affinity of radioligand to the receptor. As shown in Table Q Compound No. 7 has a lower affinity for D2 when compared to Compounds A-2, A-3, A-4, and A-5.

H1 = H1 (Homo sapiens (Human), UniProt P35367); assay: H1 binding assay ([3H]pyrilamine, HEK293 stable cell line membranes)
Description: Example 25. H1 and 5-HT2A Binding Assay Protocol
(§3) The testing compounds were diluted with DMSO, starting at 2 mM, with 8-points and 5-fold serial dilutions. Ketanserin and Pyrilamine were diluted with DMSO, starting at 0.2 mM, with 8-points and 5-fold serial dilution.
(§4) 1 μl of a compounds of the present disclosure and either reference compound (Table C) were transferred to assay plates. 1 μl of 0.2 mM Ketanserin or Pyrilamine was transferred to an assay plate according to the plate map for nonspecific binding (Low control: LC). 1 μl of DMSO was transferred to an assay plate according to plate map for total binding (High control: HC).
(§5) 100 μlof membrane stocks were dispensed into the plates, following the plate map. 100 of radio ligand was added. The plates were sealed and shaken at 300 rpm at room temperature for 1 hour. The Unifilter-96 GF/C filter plates were soaked with 50 of 0.3% PEI per well for at least 0.5 hour at room temperature.
as §1, with “When” for “Unifilter-96 GF/C filter plates were soaked with 50 μL of 0.3% PEI per well for about 0.5 hours at room temperature. When”, “through” for “through the”, “GF/C” for “GF/C filter”, “and then” for “and”, “50 degrees.” for “50° C.”, “μl” for “μL”
as §2
(§6) [formula] The data was analyzed using Prism 5. The model used was “log(inhibitor) vs. response—Variable slope” to fit the data and calculate IC50. The IC50 was then converted to Ki using following equation: Ki=IC50/(1+L/Kd). L is the radioligand concentration in the reaction system; Kd is the affinity of radioligand to the receptor.

5-HT2A = 5-HT2A (Homo sapiens (Human), UniProt P28223); assay: 5-HT2A binding assay ([3H]-Ketanserin, HEK293 stable cell line membranes)
Description: H1 and 5-HT2A Binding Assay Protocol
as §3, §4, §5
as §1, with “When” for “Unifilter-96 GF/C filter plates were soaked with 50 μL of 0.3% PEI per well for about 0.5 hours at room temperature. When”, “through” for “through the”, “GF/C” for “GF/C filter”, “and then” for “and”, “50 degrees.” for “50° C.”, “μl” for “μL”
as §2, §6

[1] = Human clearance and half-life projections (allometric scaling from monkey clearance); conditions: for T1/2 (h), projected human half-life: one-compartmental model, T1/2=0.693×(predicted Vd/predicted CL); for CL (mL/min/kg), projected human clearance: single species scaling from monkey clearance
Description: (§7) The biological activity of the compounds of the present disclosure may be determined utilizing projected human clearance (CL) and half-life in humans. An allometric scaling method, using a single species scaling from monkey clearance was used to project clearance. Human volume of distribution (Vd) was projected from animal Vd, adjusted for differences in plasma protein binding and assuming similar unbound Vd across species. Human half-life (T1/2) was calculated based on a one-compartmental model, using a relationship of T1/2=0.693×(predicted Vd/predicted CL).
as §7, with “An” for “The biological activity of the compounds of the present disclosure may be determined utilizing projected human clearance (CL) and half-life in humans. An”

male Wistar rats = assay: SCORE EEG/EMG sleep-wake monitoring: sleep continuity, number of arousals, depth of sleep; format: in vivo, rat; conditions: for normalized EEG delta power (slow wave activity) during nonREM sleep / increase in sleep bout-length per hour relative to vehicle control / cumulative increase in Total Sleep Time (NREM+REM sleep) relative to baseline: CT-18, male Wistar rats; for reductions in the number of transitions from sleep to wake per hour relative to controls: CT-5, male Wistar rats; for cumulative increase in Total Sleep Time (NREM+REM sleep) relative to baseline: 30 hours post-treatment
Description: Example 30. Experimental Details and Methods for Determining Sleep Continuity, Number of Arousals, and Depth of Sleep
Treatment detail plots (see, e.g., FIGS. 1-10) depict pre- and post-treatment time series plot ±30 hours before and after treatment at CT-18 (6-hours after lights-off) or pre- and post-treatment time series plots 29 hr before and 31 hr after treatments at CT-5 (5-hours after lights-on). Treatment occurred at the beginning of the hour marked by a triangle on the abscissa of the plot. Variables were computed in hourly bins.
All data were plotted as group mean±SEM (see, e.g., FIGS. 1-10). The gray shaded area encompasses the vehicle treatment mean±SEM. Along the x-axis, time of treatment is marked by a triangle unless noted otherwise. Along the x-axis, light/dark bars indicate lights on/off.
Adult, male Wistar rats (approximately 270 g at time of surgery, Charles River Laboratories) were administered dexmedetomidine 25 μg/kg and anesthetized (2% isoflourane in 95/5 oxygen, to effect) and surgically prepared with a cranial implant that permitted chronic electro-encephalogram (EEG) and electromyogram (EMG) recording. Body temperature and locomotor activity were monitored via a miniature transmitter (Minimitter Series PDT4000 E-Mitter, Bend, Oreg.) surgically placed in the abdomen during the same anesthetic event when the cranial portion was implanted. The cranial implant consisted of miniature stainless steel screws (2 frontal [+3.9 AP from bregma, 2.0 ML], 2 occipital [−6.4 AP, 5.5 ML], and 1 ground placed sagittaly and posterior to lambda) for EEG recording. Two Teflon-coated multi-strand stainless steel wires were positioned under the nuchal trapezoid muscles for EMG recording. All leads were soldered to a miniature connector (Omnetics, Minneapolis, Minn.) and gas sterilized with ethylene oxide prior to surgery. The implant assembly was affixed to the skull by the combination of the EEG recording screws, cyanoacrylate applied between the hermetically sealed implant connector and skull, and a UV-curing dental acrylic. An analgesic (meloxicam 1 mg/kg IP) was administered 1 day prior to surgery and daily for 2 days post-surgery. Neosporin with lidocaine was applied topically to the peri-implant margin. At least three weeks were allowed for surgical recovery prior to any data collection.
Rats were housed individually within specially modified Innovive® cages equipped with a custom-built ultra-low-torque slip-ring commutator and a customized Innovive® polycarbonate cage-top. These cages were located on shelves of a modified stainless steel animal rack that was pre-wired for physiological and behavioral data collection. Food and water were available ad libitum and the ambient temperature was 22±1° C. A 24-hr light-dark cycle (LD 12:12) was maintained throughout the study using LED lighting strips. Light intensity averaged 35 lux at mid-level inside the cage. Relative humidity averaged 50% approximately. Animals were undisturbed for two days before and after each treatment.
Sleep and wakefulness were determined using SCORE™—a Linux and Windows-10 real-time computer-based sleep-wake and physiological monitoring system. Validation of the SCORE™ sleep stage identification algorithm in rodents and the system's utility in pre-clinical drug discovery and evaluation have been previously described (Edgar et al. Psychopharmacology 1991, 105, 374; Gilmour et al., Neuropharmacology 2012, 64, 224; McCarthy et al., 2016, Neuropharmacology 108, 415; Olive et al., J. Pharmacology &Experimental Therapeutics 1998 285, 1073; Phillips et al, Neuropharmacology 2012, 62, 1359; Seidel et al. J Pharmacology &Experimental Therapeutics 1995, 275, 263; Van Gelder et al. Sleep 1991, 14, 48). […]

Sequence of 5-HT2C (P28335 33-458): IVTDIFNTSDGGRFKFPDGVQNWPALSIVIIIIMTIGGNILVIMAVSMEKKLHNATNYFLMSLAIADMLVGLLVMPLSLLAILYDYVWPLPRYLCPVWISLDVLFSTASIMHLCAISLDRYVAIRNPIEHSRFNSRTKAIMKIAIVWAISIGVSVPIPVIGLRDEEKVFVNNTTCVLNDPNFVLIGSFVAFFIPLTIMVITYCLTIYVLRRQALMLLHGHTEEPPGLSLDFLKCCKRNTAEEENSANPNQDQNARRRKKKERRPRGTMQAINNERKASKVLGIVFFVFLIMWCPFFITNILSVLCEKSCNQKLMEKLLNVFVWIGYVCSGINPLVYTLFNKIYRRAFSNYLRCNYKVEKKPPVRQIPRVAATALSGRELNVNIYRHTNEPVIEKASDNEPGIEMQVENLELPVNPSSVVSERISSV
Sequence of 5-HT2A (P28223 whole entry, species assumed): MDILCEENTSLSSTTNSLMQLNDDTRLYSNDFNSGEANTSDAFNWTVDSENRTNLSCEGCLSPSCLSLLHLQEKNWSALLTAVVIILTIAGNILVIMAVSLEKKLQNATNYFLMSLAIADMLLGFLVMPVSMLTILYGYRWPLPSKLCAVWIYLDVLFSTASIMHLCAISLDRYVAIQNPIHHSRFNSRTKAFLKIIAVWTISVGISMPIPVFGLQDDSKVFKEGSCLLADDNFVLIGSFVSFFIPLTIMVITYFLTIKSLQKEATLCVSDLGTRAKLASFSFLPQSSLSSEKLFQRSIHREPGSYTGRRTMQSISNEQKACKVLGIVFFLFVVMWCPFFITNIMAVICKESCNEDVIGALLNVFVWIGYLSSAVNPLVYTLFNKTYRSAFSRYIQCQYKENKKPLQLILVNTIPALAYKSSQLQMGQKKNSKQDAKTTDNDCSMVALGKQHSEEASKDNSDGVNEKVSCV
Sequence of D2 (P14416 whole entry): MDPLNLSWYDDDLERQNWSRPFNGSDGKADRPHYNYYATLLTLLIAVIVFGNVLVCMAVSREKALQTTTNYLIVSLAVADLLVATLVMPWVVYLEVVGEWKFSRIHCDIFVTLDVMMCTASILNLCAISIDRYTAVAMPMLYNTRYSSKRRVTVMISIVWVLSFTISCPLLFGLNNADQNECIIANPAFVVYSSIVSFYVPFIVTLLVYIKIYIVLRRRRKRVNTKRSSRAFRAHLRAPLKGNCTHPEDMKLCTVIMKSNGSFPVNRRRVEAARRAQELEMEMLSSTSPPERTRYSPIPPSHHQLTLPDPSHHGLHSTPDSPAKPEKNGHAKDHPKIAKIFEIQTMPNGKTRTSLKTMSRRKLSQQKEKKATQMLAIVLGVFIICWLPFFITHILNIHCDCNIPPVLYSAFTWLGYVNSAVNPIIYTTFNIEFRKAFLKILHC
Sequence of H1 (P35367 whole entry): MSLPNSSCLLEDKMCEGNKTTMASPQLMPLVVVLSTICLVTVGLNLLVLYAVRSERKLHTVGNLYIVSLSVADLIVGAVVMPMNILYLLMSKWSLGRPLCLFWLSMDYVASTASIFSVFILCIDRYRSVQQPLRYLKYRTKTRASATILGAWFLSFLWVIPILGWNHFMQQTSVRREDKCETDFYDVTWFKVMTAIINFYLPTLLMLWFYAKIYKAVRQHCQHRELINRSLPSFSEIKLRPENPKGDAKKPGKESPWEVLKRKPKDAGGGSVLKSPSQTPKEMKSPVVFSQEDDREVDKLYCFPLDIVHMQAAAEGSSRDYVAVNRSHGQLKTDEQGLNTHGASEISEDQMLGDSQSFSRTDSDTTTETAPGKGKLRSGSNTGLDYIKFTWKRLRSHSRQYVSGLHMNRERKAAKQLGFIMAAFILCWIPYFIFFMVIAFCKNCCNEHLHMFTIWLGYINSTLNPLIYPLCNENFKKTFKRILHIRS

SMILES | Ki (5-HT2C; numeric values) | Ki (D2) | Ki (H1; Table E, class symbols) | Ki (5-HT2A; Table F, class symbols) | Ki (5-HT2C; Table L, class symbols) | T1/2 (h), projected human half-life [1] | CL (mL/min/kg), projected human clearance [1] | other results
Cc1ccc2c(c1)N=C(N1CCN(CC(C)(C)C(=O)O)CC1)c1cc(C)ccc1O2 [A-2, 3-(4-(2,8-dimethyldibenzo[b,f][1,4]oxazepin-11-yl)piperazin-1-yl)-2,2-dimethylpropanoic acid, reference compound] | 265 nM | 60 nM | – | – | – | – | – | –
Cc1ccc2c(c1)Oc1ccc(C)cc1C(N1CCN(CC(C)(C)C(=O)O)CC1)=N2 [A-3, 3-(4-(2,7-dimethyldibenzo[b,f][1,4]oxazepin-11-yl)piperazin-1-yl)-2,2-dimethylpropanoic acid, reference compound] | 125 nM | 152 nM | – | – | – | – | – | –
Cc1ccc2c(c1)N=C(N1CCN(CC(C)(C)C(=O)O)CC1)c1ccc(C)cc1O2 [A-4, 3-(4-(3,8-dimethyldibenzo[b,f][1,4]oxazepin-11-yl)piperazin-1-yl)-2,2-dimethylpropanoic acid, reference compound] | 772 nM | 1900 nM | – | – | – | – | – | –
Cc1ccc2c(c1)Oc1cc(F)ccc1N=C2N1CCN(CC(C)(C)C(=O)O)CC1 [Compound No. 6, 3-(4-(7-fluoro-3-methyldibenzo[b,f][1,4]oxazepin-11-yl)piperazin-1-yl)-2,2-dimethylpropanoic acid] | – | – | 1 to 25 nM | 1 to 25 nM | > 500 nM | 12 to 25 h | 0.3 mL/min/kg | –
CC(C)(CN1CCN(C2=Nc3ccccc3Cc3ccccc32)CC1)C(=O)O [Compound No. 8, 3-(4-(11H-dibenzo[b,e]azepin-6-yl)piperazin-1-yl)-2,2-dimethylpropanoic acid] | – | – | 25 to 50 nM | > 50 nM | > 500 nM | 2 to 4 h | 1.8 mL/min/kg | Ki (H1; numeric values): 46 nM; Ki (5-HT2A; numeric values): ~87 nM and 87 nM; normalized EEG delta power (slow wave activity) during nonREM sleep (male Wistar rats; 3 mg/kg PO): increases in EEG slow wave activity in nonREM sleep; reductions in the number of transitions from sleep to wake per hour relative to controls (male Wistar rats; 10 mg/kg PO): up to 50%; increase in sleep bout-length per hour relative to vehicle control (male Wistar rats; 10 mg/kg PO): approximately 4 fold; cumulative increase in Total Sleep Time (NREM+REM sleep) relative to baseline (male Wistar rats; 30 mg/kg PO, listed as Compound 8): 70 min; cumulative increase in Total Sleep Time (NREM+REM sleep) relative to baseline (male Wistar rats; 30 mg/kg PO, listed as compound 8): approximately 70 minute
Cc1ccc2c(c1)Oc1cc(C(F)F)ccc1C(N1CCN(CC(C)(C)C(=O)O)CC1)=N2 [Compound No. 15, 3-(4-(3-(difluoromethyl)-7-methyldibenzo[b,f][1,4]oxazepin-11-yl)piperazin-1-yl)-2,2-dimethylpropanoic acid] | – | – | > 50 nM | 1 to 25 nM | – | – | – | reductions in the number of transitions from sleep to wake per hour relative to controls (male Wistar rats; 30 mg/kg PO): approximately 30%; increase in sleep bout-length per hour relative to vehicle control (male Wistar rats; 30 mg/kg PO): approximately 3 fold; normalized EEG delta power (slow wave activity) during nonREM sleep (male Wistar rats; 30 mg/kg PO): increases in EEG slow wave activity in nonREM sleep
CC(C)(CN1CCN(C2=Nc3ccccc3Oc3cc(C(F)F)ccc32)CC1)C(=O)O [Compound No. 36, 3-(4-(3-(difluoromethyl)dibenzo[b,f][1,4]oxazepin-11-yl)piperazin-1-yl)-2,2-dimethylpropanoic acid] | – | – | – | – | – | 14 to 50 h | 0.4 mL/min/kg | –
CC(C)(CN1CCN(C2=Nc3ccccc3Oc3cccc(F)c32)CC1)C(=O)O [Compound No. 39, 3-(4-(1-fluorodibenzo[b,f][1,4]oxazepin-11-yl)piperazin-1-yl)-2,2-dimethylpropanoic acid] | – | – | > 50 nM | > 50 nM | < 100 nM | – | – | –
